Active and inactive are the calls of the source.
How the values were obtained:
[1] = biological target: ADP-ribosylation factor GTPase-activating protein 1 (Rattus norvegicus, UniProt Q62848); assay: Fluorescence polarization-based biochemical high throughput dose response screening assay to identify inhibitors of ADP-ribosylation factor GTPase activating protein 1 (ARFGAP1).; type: functional
[2] = biological target: Nuclear receptor subfamily 5 group A member 2 (Homo sapiens, UniProt O00482); type: functional, cell-based;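 note: HEK293T cells transfected with LRH-1 and a StAR promoter luciferase reporter; potency for inhibitors that lower LRH-1 driven reporter light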
Nuclear receptor subfamily 5 group A member 2, sequence (O00482 whole entry): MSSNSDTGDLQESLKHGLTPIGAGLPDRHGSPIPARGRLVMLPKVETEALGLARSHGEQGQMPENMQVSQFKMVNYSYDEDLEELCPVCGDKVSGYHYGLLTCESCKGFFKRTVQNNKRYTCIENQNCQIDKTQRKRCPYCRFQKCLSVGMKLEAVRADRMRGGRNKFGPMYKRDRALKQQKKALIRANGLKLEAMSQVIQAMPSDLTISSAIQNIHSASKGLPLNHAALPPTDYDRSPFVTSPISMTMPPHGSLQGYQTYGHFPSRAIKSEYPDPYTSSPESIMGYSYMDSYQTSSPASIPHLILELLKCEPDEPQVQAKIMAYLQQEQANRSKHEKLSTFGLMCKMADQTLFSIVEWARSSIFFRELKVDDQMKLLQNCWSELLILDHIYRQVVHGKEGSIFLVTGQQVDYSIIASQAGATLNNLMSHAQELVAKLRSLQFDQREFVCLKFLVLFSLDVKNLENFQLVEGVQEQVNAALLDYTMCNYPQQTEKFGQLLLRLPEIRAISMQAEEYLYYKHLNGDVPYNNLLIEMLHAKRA

Steroidogenic factor 1 = Steroidogenic factor 1 (Homo sapiens, UniProt Q13285); assay: Counterscreen for inverse agonists of the liver receptor homolog-1 (LRH-1; NR5A2): Luminescence-based cell-based high throughput dose response assay to identify inverse agonists of the Steroidogenic Factor 1 Nuclear Receptor (SF1; NR5A1).; type: functional
Steroidogenic factor 1, sequence (Q13285 whole entry): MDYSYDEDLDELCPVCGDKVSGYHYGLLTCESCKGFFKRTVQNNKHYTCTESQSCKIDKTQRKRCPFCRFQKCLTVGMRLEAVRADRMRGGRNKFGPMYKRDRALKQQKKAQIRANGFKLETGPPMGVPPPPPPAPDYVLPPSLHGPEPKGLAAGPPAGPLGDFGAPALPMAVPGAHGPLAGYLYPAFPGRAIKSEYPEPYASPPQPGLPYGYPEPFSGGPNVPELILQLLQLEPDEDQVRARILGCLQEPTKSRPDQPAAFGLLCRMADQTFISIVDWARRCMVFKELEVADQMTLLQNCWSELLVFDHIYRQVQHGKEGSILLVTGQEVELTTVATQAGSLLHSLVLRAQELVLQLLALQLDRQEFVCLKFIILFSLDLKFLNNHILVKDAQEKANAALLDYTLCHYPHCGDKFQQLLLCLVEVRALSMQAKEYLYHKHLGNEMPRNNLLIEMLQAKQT

[3] = StAR promoter reporter inhibition counter-screen, dose response, counter-screen for LRH-1 inverse agonist project, cell-based, luminescence, luciferase reporter (AID 651969); type: functional
[4] = AlphaScreen signal interference compounds, dose response, artefact control for ARNT-TACC3 interaction inhibitor project, biochemical, luminescence, cherry-pick (AID 651705); type: functional;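 note: AlphaScreen bead proximity signal that flags compounds interfering with the detection technology; potency reflects signal decrease which marks the compound as an assay artifact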
[5] = biological target: Potassium voltage-gated channel subfamily KQT member 2 (Rattus norvegicus, UniProt O88943); assay: KCNQ2 potassium channel inhibitors, dose response, cell-based, automated electrophysiology, set II, rat KCNQ2 (AID 588637); type: functional
Potassium voltage-gated channel subfamily KQT member 2, sequence (O88943 whole entry): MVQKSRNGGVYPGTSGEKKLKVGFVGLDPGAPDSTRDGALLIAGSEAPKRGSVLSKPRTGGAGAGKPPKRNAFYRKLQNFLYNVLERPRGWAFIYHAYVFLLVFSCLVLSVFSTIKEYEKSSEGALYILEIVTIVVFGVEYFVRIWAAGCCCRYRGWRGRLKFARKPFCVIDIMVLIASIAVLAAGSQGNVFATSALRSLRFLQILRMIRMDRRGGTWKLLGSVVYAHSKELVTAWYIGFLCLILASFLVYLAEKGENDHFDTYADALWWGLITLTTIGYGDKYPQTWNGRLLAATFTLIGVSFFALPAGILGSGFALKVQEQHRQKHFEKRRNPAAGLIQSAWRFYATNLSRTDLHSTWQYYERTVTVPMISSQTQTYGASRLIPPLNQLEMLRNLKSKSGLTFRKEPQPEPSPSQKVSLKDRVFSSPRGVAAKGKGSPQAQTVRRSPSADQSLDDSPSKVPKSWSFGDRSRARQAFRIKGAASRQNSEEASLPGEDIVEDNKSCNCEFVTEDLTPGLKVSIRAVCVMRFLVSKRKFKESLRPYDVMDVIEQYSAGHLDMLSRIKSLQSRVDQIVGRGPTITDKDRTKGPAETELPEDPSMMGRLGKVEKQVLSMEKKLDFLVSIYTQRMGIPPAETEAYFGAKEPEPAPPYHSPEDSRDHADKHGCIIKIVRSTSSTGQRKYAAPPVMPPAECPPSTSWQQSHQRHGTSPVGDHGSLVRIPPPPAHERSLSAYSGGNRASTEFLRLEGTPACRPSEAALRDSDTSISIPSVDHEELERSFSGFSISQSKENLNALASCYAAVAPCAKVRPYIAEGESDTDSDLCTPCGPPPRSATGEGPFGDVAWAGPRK

Interleukin-8 = biological target: T1, Interleukin-8 (Homo sapiens, UniProt P10145); assay: Dose Response confirmation of uHTS small molecule hits for cystic fibrosis induced NFkb Inhibitors in a PAF-induced IL8 counterscreen.; type: functional; conditions: read-out: IC50_Mean
T1 sequence (P10145 whole entry): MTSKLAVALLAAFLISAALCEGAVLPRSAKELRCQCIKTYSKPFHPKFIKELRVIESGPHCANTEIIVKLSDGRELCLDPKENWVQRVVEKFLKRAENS

[6] = ARNT/TACC3 interaction disruptors, potency, confirmation, biochemical, AlphaScreen, cherry-picked samples (AID 651703); type: functional, Homo sapiens;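 note: His-tagged ARNT PAS-B domain paired with GST-TACC3 E629A dimer coactivator fragment; potency of inhibitors that break up the complex and lower AlphaScreen signal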
[7] = biological target: T2, Replicative DNA helicase DnaB (Mycobacterium tuberculosis, UniProt P9WMR3); assay: DnaB intein splicing inhibitors, dose response, biochemical, cell-free fluorescence (AID 449749); type: functional
T2 sequence (P9WMR3 whole entry): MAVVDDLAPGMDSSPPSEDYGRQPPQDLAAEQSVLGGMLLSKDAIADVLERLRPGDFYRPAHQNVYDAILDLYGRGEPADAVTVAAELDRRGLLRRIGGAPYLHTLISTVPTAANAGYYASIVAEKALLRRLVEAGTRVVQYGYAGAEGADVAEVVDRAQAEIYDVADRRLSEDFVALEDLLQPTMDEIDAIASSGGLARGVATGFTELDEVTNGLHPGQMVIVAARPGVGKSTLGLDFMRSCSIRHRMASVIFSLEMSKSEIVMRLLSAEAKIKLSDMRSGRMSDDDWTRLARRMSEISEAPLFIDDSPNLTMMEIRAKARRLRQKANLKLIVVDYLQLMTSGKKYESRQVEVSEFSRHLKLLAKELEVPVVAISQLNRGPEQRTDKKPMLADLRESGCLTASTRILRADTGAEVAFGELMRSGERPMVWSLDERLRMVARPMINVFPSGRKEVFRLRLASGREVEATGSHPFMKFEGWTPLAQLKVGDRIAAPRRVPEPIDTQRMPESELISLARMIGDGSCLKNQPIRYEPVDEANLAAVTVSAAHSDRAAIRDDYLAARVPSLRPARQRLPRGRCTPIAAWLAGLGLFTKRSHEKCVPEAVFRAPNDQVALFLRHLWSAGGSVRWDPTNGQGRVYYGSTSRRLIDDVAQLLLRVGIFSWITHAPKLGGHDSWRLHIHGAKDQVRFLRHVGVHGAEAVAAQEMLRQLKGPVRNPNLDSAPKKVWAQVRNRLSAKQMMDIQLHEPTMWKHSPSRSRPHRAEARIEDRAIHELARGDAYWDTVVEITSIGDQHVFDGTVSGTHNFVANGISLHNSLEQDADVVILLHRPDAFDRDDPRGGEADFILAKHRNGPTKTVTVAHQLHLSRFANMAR

Protein RecA = biological target: T3, Protein RecA (Mycobacterium tuberculosis, UniProt P9WHJ3); assay: Fluorescence Cell-Free Homogeneous Dose Retest to Identify Inhibitors of RecA-Intein Splicing Activity. [Related pubchem assays (depositor defined):AID2097, AID2223, AID489010, AID492950]; type: functional
T3 sequence (P9WHJ3 whole entry): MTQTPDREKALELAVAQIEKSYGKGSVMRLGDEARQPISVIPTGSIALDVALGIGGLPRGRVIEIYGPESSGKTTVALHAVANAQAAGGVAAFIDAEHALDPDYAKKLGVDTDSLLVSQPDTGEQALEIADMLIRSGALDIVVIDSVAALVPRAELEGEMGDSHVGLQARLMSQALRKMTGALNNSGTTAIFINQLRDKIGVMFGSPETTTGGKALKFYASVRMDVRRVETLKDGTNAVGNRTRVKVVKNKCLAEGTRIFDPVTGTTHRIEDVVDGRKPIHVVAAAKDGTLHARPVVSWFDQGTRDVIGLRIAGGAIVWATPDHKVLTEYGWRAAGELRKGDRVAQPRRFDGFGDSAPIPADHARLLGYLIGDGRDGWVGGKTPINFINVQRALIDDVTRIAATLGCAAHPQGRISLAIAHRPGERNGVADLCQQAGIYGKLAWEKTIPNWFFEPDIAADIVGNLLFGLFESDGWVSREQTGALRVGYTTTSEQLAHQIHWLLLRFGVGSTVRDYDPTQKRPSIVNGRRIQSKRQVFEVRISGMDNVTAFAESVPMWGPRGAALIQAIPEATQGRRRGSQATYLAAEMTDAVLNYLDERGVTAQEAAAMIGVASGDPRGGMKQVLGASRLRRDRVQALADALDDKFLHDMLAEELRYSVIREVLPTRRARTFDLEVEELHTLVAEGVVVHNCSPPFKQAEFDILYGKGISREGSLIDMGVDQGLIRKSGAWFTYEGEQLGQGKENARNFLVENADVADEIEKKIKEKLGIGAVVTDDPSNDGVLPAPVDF

[8] = Vero cell cytotoxicity, cytotoxicity control for M. tuberculosis inhibitor project, purified and synthesized samples, set 3 (AID 504684); type: functional
[9] = A Cell Based Secondary Assay to Explore Cytotoxicity in THP-1 Cells of Compounds that Modulate Mycobacterium tuberculosis in Media Containing Glycerol versus Media without Glycerol (2).; type: functional
[10] = biological target: T4, Sentrin-specific protease 8 (Homo sapiens, UniProt Q96LD8); type: functional
T4 sequence (Q96LD8 whole entry): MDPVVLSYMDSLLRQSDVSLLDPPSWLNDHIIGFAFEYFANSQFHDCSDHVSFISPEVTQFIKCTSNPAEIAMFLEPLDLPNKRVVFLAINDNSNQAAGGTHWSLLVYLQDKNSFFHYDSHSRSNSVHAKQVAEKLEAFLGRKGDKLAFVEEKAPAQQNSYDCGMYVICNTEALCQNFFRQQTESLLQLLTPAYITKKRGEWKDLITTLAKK

[11] = biological target: T4, Sentrin-specific protease 8; type: functional; remark: listed apart in the source
[12] = biological target: T5, Sentrin-specific protease 1 (Homo sapiens, UniProt Q9P0U3); assay: Dose response confirmation of small molecule inhibitors of the catalytic domain of the SUMO protease, SENP1 in a FRET assay.; type: functional; conditions: read-out: IC50_Mean
T5 sequence (Q9P0U3 whole entry, the tested form may be a part): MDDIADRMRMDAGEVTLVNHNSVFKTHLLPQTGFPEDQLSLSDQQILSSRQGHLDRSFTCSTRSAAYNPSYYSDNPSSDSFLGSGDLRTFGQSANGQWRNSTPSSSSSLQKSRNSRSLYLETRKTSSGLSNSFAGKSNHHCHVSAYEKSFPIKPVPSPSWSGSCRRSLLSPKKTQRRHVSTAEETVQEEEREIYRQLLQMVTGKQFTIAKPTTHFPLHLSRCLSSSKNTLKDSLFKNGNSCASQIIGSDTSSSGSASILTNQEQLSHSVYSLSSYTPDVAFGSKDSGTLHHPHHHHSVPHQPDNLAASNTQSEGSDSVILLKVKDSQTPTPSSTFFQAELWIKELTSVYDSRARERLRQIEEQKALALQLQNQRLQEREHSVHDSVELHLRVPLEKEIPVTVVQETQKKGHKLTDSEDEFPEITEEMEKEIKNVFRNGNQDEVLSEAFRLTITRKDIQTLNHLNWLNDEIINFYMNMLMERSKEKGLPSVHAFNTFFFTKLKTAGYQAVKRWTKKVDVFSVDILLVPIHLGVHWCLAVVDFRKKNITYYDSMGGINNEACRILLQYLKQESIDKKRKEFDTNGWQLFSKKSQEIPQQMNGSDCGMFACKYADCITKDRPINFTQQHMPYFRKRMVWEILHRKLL

[13] = biological target: T5, Sentrin-specific protease 1; assay: potency of human SENP1 inhibitors, dose response, biochemical, kinetic FRET (AID 651697); type: functional; conditions: read-out: IC50_Mean
[14] = CRF-BP/CRF-R2 complex antagonists, dose response, cell-based, uHTS hits, 384-well (AID 651639); type: functional, Homo sapiens; conditions: read-out: IC50_Mean
[15] = biological target: T6, Corticotropin-releasing factor receptor 2/Corticotropin-releasing factor-binding protein (Homo sapiens, UniProt P24387+Q13324); assay: activators of CRF receptor 2 with binding protein – uHTS hits, confirmation (AID 602473); type: functional; conditions: read-out: EC50_Mean
T6 sequence (Q13324 whole entry): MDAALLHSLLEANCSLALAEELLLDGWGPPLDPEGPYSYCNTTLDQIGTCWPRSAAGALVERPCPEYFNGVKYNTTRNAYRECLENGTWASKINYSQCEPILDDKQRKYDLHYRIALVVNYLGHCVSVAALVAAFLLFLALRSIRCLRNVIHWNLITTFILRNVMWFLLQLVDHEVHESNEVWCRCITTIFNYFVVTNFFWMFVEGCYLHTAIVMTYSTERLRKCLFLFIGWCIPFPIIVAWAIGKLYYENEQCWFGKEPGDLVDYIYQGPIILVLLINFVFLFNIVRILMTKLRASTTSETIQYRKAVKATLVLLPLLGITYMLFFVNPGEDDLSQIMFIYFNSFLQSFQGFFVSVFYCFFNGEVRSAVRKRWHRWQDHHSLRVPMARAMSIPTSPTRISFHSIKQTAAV
T6 sequence (P24387 whole entry): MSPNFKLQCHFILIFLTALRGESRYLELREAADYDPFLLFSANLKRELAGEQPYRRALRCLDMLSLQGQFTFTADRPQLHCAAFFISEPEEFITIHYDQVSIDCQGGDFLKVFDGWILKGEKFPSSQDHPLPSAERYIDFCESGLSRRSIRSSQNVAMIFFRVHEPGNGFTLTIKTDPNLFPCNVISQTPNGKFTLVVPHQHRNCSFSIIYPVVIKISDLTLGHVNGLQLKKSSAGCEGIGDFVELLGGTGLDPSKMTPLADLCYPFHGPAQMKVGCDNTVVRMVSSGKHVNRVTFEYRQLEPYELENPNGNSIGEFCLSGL

[16] = biological target: T7, Carboxy-terminal domain RNA polymerase II polypeptide A small phosphatase 1 (Homo sapiens, UniProt Q9GZU7); assay: inhibitors of CTDSP1, concentration-response testing, biochemical assay, absorbance-based, actives from ultra-high-throughput screening (AID 540297); type: functional
T7 sequence (Q9GZU7 whole entry): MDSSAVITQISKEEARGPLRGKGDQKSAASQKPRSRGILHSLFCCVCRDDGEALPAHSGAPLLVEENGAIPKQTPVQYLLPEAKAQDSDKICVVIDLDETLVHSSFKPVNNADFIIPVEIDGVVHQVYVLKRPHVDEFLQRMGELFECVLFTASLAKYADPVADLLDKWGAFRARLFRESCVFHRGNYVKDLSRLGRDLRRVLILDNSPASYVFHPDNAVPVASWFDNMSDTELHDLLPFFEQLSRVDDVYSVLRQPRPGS

[17] = biological target: T6, Corticotropin-releasing factor receptor 2/Corticotropin-releasing factor-binding protein; assay: Dose Response confirmation of uHTS hits for small molecule antagonists of the CRF-binding protein and CRF-R2 receptor complex.; type: functional; conditions: read-out: IC50_Mean
[18] = biological target: Hepatocyte nuclear factor 4-alpha (Homo sapiens, UniProt P41235); type: functional, cell-based;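 note: biochemical luminescence-based dose-response counterscreen measuring inhibition of HNF4 dimerization, run alongside a screen for blockers of ABHD5–perilipin-5 interaction; split luciferase complementation of HNF4 fusion proteins in cell lysate measuring dimerization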
Hepatocyte nuclear factor 4-alpha, sequence (P41235 whole entry, the tested form may be a part): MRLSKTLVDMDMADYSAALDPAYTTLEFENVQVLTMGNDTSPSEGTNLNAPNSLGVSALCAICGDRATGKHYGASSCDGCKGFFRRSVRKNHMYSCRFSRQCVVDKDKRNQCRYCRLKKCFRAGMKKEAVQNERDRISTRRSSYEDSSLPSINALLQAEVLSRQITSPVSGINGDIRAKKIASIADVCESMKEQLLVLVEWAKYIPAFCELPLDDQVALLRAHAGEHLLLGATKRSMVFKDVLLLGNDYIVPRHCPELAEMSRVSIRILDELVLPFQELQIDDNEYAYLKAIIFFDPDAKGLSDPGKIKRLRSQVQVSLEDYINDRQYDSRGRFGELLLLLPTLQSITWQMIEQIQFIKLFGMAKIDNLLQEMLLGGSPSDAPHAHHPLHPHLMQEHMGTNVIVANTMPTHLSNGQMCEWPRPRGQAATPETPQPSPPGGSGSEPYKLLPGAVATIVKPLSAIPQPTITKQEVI

[19] = biological target: T8, Aryl hydrocarbon receptor (Homo sapiens, UniProt P35869); conditions: Potency;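 note: confirmatory quantitative high-throughput screen measuring activation of the AhR signaling pathway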
T8 sequence (P35869 whole entry): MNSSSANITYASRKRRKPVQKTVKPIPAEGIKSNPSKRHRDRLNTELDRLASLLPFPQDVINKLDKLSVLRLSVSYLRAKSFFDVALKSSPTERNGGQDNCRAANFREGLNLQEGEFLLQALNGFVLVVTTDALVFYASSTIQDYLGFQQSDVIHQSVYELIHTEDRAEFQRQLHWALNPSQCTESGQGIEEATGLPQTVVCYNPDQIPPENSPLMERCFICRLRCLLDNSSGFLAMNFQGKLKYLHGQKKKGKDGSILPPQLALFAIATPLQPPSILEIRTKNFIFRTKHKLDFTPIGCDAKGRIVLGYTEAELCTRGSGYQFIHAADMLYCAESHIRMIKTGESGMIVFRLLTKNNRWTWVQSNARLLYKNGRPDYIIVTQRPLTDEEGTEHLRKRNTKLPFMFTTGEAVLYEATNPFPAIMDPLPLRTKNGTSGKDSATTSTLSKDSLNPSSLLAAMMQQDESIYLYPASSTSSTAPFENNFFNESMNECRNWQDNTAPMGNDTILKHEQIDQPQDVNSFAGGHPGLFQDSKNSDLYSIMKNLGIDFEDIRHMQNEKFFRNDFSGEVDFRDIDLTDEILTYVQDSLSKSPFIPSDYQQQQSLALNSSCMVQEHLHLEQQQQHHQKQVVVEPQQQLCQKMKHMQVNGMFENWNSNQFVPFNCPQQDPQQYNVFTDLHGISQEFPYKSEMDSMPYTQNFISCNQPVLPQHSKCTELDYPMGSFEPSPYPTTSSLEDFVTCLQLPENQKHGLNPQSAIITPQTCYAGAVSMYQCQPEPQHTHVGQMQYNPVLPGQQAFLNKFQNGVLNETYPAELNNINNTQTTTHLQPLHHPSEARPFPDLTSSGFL

ADP-ribosylation factor GTPase-activating protein 1, sequence (Q62848 whole entry): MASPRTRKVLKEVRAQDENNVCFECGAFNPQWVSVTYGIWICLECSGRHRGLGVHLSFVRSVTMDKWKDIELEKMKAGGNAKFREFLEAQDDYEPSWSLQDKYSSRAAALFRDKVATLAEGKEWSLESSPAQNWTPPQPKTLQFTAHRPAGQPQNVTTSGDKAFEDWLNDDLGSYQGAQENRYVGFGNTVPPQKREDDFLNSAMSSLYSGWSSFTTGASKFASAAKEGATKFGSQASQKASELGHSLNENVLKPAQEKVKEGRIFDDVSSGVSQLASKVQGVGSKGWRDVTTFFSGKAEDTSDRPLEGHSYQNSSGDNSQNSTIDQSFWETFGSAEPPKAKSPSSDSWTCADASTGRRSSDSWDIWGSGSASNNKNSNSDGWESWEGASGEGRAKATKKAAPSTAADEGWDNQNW

Structure (SMILES): COc1ccc(NC(=O)Cn2nnc(C(=O)Nc3ccc(F)c(Cl)c3)c2N)cc1
- IC50 [1]: 53.1 µM (inactive)

Structure (SMILES): COc1ccc(-n2c(N)c(C(=O)NCc3cccnc3)sc2=S)cc1
- IC50 [2]: 35.9 µM (inactive)
- IC50 (Steroidogenic factor 1): 5.22 µM (active)
- IC50 [3]: 35.9 µM (inactive)

Structure (SMILES): Cc1cccc(NC(=O)CSc2cccc3cccnc23)c1
- AC50 [4]: 76.9 µM (active)

Structure (SMILES): O=C(OCC(=O)N(CCc1ccccc1)Cc1ccccc1)c1ccccc1O
- IC50 [5]: 1.83 µM (active)

Structure (SMILES): OCCN1CCN(c2ncnc3ccc(Br)cc23)CC1
- IC50 (Interleukin-8): 22 µM (inactive)

Structure (SMILES): COC(=O)CC1=NN(c2nc(C)cc(C)n2)C(=O)C1
- AC50 [6]: 123 µM (active)
- AC50 [7]: 103 µM (active)
- EC50 (Protein RecA): > 380 µM (inactive)

Structure (SMILES): CCOC(=O)C(C)Sc1ncnc2c1nnn2-c1ccc(F)cc1 (centres undefined)
- CC50 [8]: 67.1 µM (active)
- CC50 [9]: 55.2 µM (active)
- AC50 [7]: 10.4 µM (active)
- EC50 (Protein RecA): 10.9 µM (active)

Structure (SMILES): COc1ccc(S(=O)(=O)Oc2ccc3cccc(N)c3c2)cc1
- IC50 [10]: 19.6 µM (active)
- IC50 [11]: 9.11 µM (active)

Structure (SMILES): O=C(NC[C@@H]1CCCO1)c1cccc2c1C(=O)c1ccc(N3CCOCC3)cc1S2(=O)=O
- IC50 [12]: 16.4 µM (active)
- IC50 [13]: 12 µM (active)

Structure (SMILES): C=CCn1cnc2c(c1=O)c1nc3ccccc3nc1n2/N=C/c1cccc(OC)c1OC
- IC50 [14]: 2.21 µM (active)
- EC50 [15]: > 53 µM (inactive)
- IC50 [16]: 10.1 µM (active)
- IC50 [17]: 3.36 µM (active)

Structure (SMILES): O=C(NC1CCCCC1)C(c1cccc2ccccc12)n1c(=O)c(-c2ccco2)nc2ccccc21 (centres undefined)
- IC50 [18]: 1.48 µM (active)

Structure (SMILES): CC1(COc2ccc(CC3SC(=O)NC3=O)cc2)CCCCC1 (centres undefined) [CIGLITAZONE]
- AC50 [19]: 56.2 µM (inconclusive)
